Values of other authors, collected in patent publication US20230165838A1, “TREATMENT FOR ACUTE RESPIRATORY DISTRESS SYNDROME” (DIMERIX BIOSCIENCE LTD., priority 2020, published 2023).

Test system: monocytes
Conditions: MCP-1 induced; mechanism seems to require GPI-anchored proteins such as CD55, CD59 and CD16 (Yokochi, S. 2001)

O=C(O)C[CH2][Ge](=[O])[O][Ge](=[O])[CH2]CC(=O)O [Propagermanium, 3-[(2-Carboxyethyl-oxogermyl)oxy-oxogermyl]propanoic acid]
in vitro chemotactic migration of monocytes by MCP-1: specifically inhibit
